Measured values taken from ChEMBL document CHEMBL6121062, “Discovery, Optimization, and Preclinical Pharmacology of EP652, a METTL3 Inhibitor with Efficacy in Liquid and Solid Tumor Models” (J Med Chem, 2025).

Assays:
[1] = Lipophilicity, logD of compound in 1-octanol/PBS at pH 7.4 incubated for 24 hrs by HPLC analysis; format: physicochemical
Kasumi 1 = assay: Antiproliferative activity against human Kasumi 1 cells assessed as inhibition of cell viability incubated for 72 hrs by ATPlite assay; format: functional, cell-based; conditions: Kasumi 1, 72 h
METTL3/METTL14 = METTL3/METTL14 (Homo sapiens, UniProt Q86U44); assay: Displacement of [3H]-SAM from METTL3/METTL14 (unknown origin) using 5'biotinylated-UACACUCGAUCUGGACUAAAGGUGCUC-3' RNA as substrate preincubated for 10 mins followed by substrate/[3H]-SAM addition measured after 90 mins by SPA; format: protein-complex assay
[2] = Unbound AUC in Sprague-Dawley rat at 1 mg/kg/day, iv measured for 24 hrs by LC-MS/MS analysis; format: ADME, organism-based; conditions: in vivo
[3] = Unbound clearance in Sprague-Dawley rat at 1 mg/kg/day, iv measured for 24 hrs by LC-MS/MS analysis; format: ADME, organism-based; conditions: in vivo

Chain of METTL3/METTL14 (Q86U44 whole entry): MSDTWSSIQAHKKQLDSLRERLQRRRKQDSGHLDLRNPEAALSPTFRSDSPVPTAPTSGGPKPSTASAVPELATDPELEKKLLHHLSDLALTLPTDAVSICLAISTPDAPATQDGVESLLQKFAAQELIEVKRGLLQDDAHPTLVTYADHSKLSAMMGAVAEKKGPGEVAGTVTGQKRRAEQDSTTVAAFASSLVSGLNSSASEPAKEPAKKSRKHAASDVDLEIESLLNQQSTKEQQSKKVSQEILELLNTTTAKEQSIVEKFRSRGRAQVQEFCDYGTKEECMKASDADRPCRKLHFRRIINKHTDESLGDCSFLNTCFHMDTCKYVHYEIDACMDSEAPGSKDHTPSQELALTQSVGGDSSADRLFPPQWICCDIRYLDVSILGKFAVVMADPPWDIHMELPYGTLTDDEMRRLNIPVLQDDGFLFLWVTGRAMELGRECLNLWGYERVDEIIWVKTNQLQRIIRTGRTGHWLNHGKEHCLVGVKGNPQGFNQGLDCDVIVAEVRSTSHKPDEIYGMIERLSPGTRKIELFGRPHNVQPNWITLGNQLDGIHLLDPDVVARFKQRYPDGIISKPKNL
Chain of METTL3/METTL14 (Q9HCE5 whole entry, further chain): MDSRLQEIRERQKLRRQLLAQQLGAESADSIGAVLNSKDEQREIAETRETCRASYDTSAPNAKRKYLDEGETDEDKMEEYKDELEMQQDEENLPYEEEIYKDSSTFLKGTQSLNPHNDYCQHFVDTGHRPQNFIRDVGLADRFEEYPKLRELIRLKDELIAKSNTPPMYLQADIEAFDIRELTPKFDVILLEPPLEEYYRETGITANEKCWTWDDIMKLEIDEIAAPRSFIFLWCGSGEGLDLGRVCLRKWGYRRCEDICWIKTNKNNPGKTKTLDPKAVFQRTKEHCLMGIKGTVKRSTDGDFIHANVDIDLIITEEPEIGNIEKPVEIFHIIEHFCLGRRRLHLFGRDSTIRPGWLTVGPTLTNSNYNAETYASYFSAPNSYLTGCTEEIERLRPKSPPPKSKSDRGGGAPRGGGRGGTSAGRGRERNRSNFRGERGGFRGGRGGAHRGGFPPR

Compound `COc1cc(-c2cn(Cc3ccc(N4CCC[C@@H](NC(C)C5CCC5)C4)nn3)nn2)c2cn[nH]c2c1` (some centres not stated) has a logD at 24 h [1] of 2.14 and an IC50 (Kasumi 1) of 10.1 µM.

`COc1cncc(-c2cn(Cc3ccc(N4CCC[C@@H](NCC5CCC5)C4)nc3)nn2)c1` gave a logD at 24 h [1] of 1.46, an IC50 (Kasumi 1) of 1.2 µM and an IC50 (METTL3/METTL14) of 0.007 µM.

`COc1cc(-c2cn(Cc3ccc(N4CCC[C@@H](NCC(C)C)C4)nn3)nn2)c2cn[nH]c2c1` gave a logD at 24 h [1] of 1.92, an IC50 (Kasumi 1) of 1.76 µM and an IC50 (METTL3/METTL14) of 0.003 µM.

`COc1cc(-c2cn(Cc3ccc(N4CCC[C@@H](NCC5CC5)C4)nn3)nn2)c2cn[nH]c2c1` gave a logD at 24 h [1] of 1.63, an IC50 (Kasumi 1) of 1.05 µM and an IC50 (METTL3/METTL14) of 0.002 µM.

`COc1cncc(-c2cn(Cc3ccc(N4CCC[C@@H](NCC5CCC5)C4)cc3)nn2)c1` gave a logD at 24 h [1] of 2.04, an IC50 (Kasumi 1) of 0.875 µM and an IC50 (METTL3/METTL14) of 0.006 µM.

Work on `CC(n1cc(-c2cncc(N(C)C)n2)nn1)n1ccc(N2CCC[C@@H](NCC3CC3)C2)cc1=O` (some centres not stated) yielded a logD at 24 h [1] of 1.17, a fAUC [2] of 5.2 µM·min and an IC50 (Kasumi 1) of 0.096 µM. The IC50 (METTL3/METTL14) was 0.001 µM and the CL free [3] was 22.1 L/h/kg.

`CCOc1cncc(-c2cn(C(C)n3ccc(N4CCC[C@@H](NCC5CCC5)C4)cc3=O)nn2)c1` (some centres not stated) gave a logD at 24 h [1] of 2.07, a fAUC [2] of 2.1 µM·min and an IC50 (Kasumi 1) of 0.302 µM. The IC50 (METTL3/METTL14) was 0.002 µM and the CL free [3] was 66.72 L/h/kg.

`COc1cncc(-c2cc(C(C)n3ccc(N4CCC[C@@H](NCC5CCC5)C4)cc3=O)sn2)c1` (some centres not stated) showed a logD at 24 h [1] of 2.26, an IC50 (Kasumi 1) of 1.72 µM and an IC50 (METTL3/METTL14) of 0.011 µM.

In the case of `COc1cncc(-n2cc(C(C)n3ccc(N4CCC[C@@H](NCC5CCC5)C4)cc3=O)cn2)c1` (some centres not stated), the logD at 24 h [1] is reported as 1.6, the IC50 (Kasumi 1) is reported as 0.306 µM and the IC50 (METTL3/METTL14) is reported as 0.001 µM. For the same compound, the CL free [3] was 36.5 L/h/kg.

With `COc1cncc(-c2cn(Cc3ccc(N4CCCC(NCC5CCC5)C4=O)nn3)nn2)c1` (configuration not stated) the logD at 24 h [1] was 1.15, the IC50 (Kasumi 1) was over 30 µM and the IC50 (METTL3/METTL14) was over 30 µM.

`COc1cc(-c2cn(Cc3ccc(N4CCC[C@@H](N(C)CC5CCC5)C4)nn3)nn2)c2cn[nH]c2c1` gave a logD at 24 h [1] of 2.59 and an IC50 (Kasumi 1) of 3.13 µM.

Compound `COc1cncc(-c2cn(C(C)n3ccc(N4CCC[C@@H](NCC5CCC5)C4)cc3=O)cn2)c1` (some centres not stated) has a logD at 24 h [1] of 1.52, an IC50 (Kasumi 1) of 0.453 µM and a CL free [3] of 29.2 L/h/kg.

In the case of `COc1cncc(-c2cn(C3(c4ccc(N5CCC[C@@H](NCC6CCC6)C5)nn4)CC3)nn2)c1`, the logD at 24 h [1] is reported as 1.7, the IC50 (Kasumi 1) is reported as 9.88 µM and the IC50 (METTL3/METTL14) is reported as 0.025 µM.

`COc1cc(-c2cn(Cc3ccc(N4CCC[C@H](NCC5CCC5)C4)nn3)nn2)c2cn[nH]c2c1` showed a logD at 24 h [1] of 1.89, an IC50 (Kasumi 1) of 3.41 µM and an IC50 (METTL3/METTL14) of 0.024 µM.

`COc1cc(-c2cn(Cc3ccc(N4CCC(NCC5CCC5)CC4)nn3)nn2)c2cn[nH]c2c1` gave a logD at 24 h [1] of 1.64, an IC50 (Kasumi 1) of over 30 µM and an IC50 (METTL3/METTL14) of 0.563 µM.

In the case of `COc1cncc(-n2cc(C(C)n3ccc(N4CCC[C@@H](NCC5CCC5)C4)cc3=O)nn2)c1` (some centres not stated), the logD at 24 h [1] is reported as 1.12, the IC50 (Kasumi 1) is reported as 1.93 µM and the IC50 (METTL3/METTL14) is reported as 0.007 µM.

Compound `COc1cncc(-c2cc(C(C)n3ccc(N4CCC[C@@H](NCC5CCC5)C4)cc3=O)on2)c1` (some centres not stated) has a logD at 24 h [1] of 1.63, an IC50 (Kasumi 1) of 1.84 µM and an IC50 (METTL3/METTL14) of 0.007 µM.

Compound `CC(n1cc(-c2cncc(C#N)c2)nn1)n1ccc(N2CCC[C@@H](NCC3CCC3)C2)cc1=O` (some centres not stated) has a logD at 24 h [1] of 0.97 and an IC50 (Kasumi 1) of over 30 µM.

`COc1cncc(-c2nnn(C(C)n3ccc(N4CCC[C@@H](NCC5CCC5)C4)cc3=O)n2)c1` (some centres not stated) showed a logD at 24 h [1] of 1.52, an IC50 (Kasumi 1) of 5.5 µM and an IC50 (METTL3/METTL14) of 0.013 µM.

Compound `COc1cc(-c2cn(Cc3ccc(N4CCC[C@@H](NC5CC56CCC6)C4)nn3)nn2)c2cn[nH]c2c1` (some centres not stated) has a logD at 24 h [1] of 3.06, an IC50 (Kasumi 1) of 1.1 µM and an IC50 (METTL3/METTL14) of 0.004 µM.

For `COc1cncc(-c2cn(Cc3ccc(N4CCCCC(NCC5CCC5)C4)nn3)nn2)c1` (configuration not stated), the logD at 24 h [1] was 1.18, the IC50 (Kasumi 1) was over 30 µM and the IC50 (METTL3/METTL14) was 0.05 µM.

`CC(n1cc(-c2cccnc2)nn1)n1ccc(N2CCC[C@@H](NCC3CCC3)C2)cc1=O` (some centres not stated) gave a logD at 24 h [1] of 0.87, an IC50 (Kasumi 1) of 8.12 µM and an IC50 (METTL3/METTL14) of 0.039 µM.

With `COc1cncc(-c2cn(Cn3ncc(N4CCC[C@@H](NCC5CCC5)C4)cc3=O)nn2)c1` the logD at 24 h [1] was 1.06, the IC50 (Kasumi 1) was 11.8 µM and the IC50 (METTL3/METTL14) was 0.026 µM.

For `CC(n1cc(-c2cccn3cncc23)nn1)n1ccc(N2CCC[C@@H](NCC3CCC3)C2)cc1=O` (some centres not stated), the logD at 24 h [1] was 1.53, the IC50 (Kasumi 1) was 5.4 µM and the IC50 (METTL3/METTL14) was 0.008 µM.

Work on `COc1cncc(-c2cn(C(c3ccc(N4CCC[C@@H](NCC5CCC5)C4)nn3)C(F)(F)F)nn2)c1` (some centres not stated) yielded a logD at 24 h [1] of 2.43, an IC50 (Kasumi 1) of 12.2 µM and an IC50 (METTL3/METTL14) of 0.012 µM.

`COc1cc(-c2cn(Cc3ccc(N4CCC[C@@H](NC5CCCC5)C4)nn3)nn2)c2cn[nH]c2c1` showed a logD at 24 h [1] of 1.88 and an IC50 (Kasumi 1) of 3.43 µM.

In the case of `COc1cncc(-c2cnn(C(C)n3ccc(N4CCC[C@@H](NCC5CCC5)C4)cc3=O)n2)c1` (some centres not stated), the logD at 24 h [1] is reported as 1.84, the IC50 (Kasumi 1) is reported as over 30 µM and the IC50 (METTL3/METTL14) is reported as over 30 µM.

Work on `COc1cncc(-c2cn(Cc3ccc(N4CC5(CCCC5NCC5CCC5)C4)nn3)nn2)c1` (configuration not stated) yielded a logD at 24 h [1] of 1.85, an IC50 (Kasumi 1) of over 30 µM and an IC50 (METTL3/METTL14) of 0.205 µM.

`COc1cncc(-c2cn(Cc3ccc(N4CCC[C@@H](CNC5CCC5)C4)nn3)nn2)c1` showed a logD at 24 h [1] of 0.88, an IC50 (Kasumi 1) of over 30 µM and an IC50 (METTL3/METTL14) of 0.124 µM.

Compound `COc1cc(-c2cn(Cc3ccc(N4CCC[C@@H](NC5CCC5)C4)nn3)nn2)c2cn[nH]c2c1` has a logD at 24 h [1] of 1.71, an IC50 (Kasumi 1) of 2.74 µM and an IC50 (METTL3/METTL14) of 0.005 µM.

Compound `CC(n1cc(-c2cncc(N(C)C)c2)nn1)n1ccc(N2CCC[C@@H](NCC3CCC3)C2)cc1=O` (some centres not stated) has a logD at 24 h [1] of 1.79, a fAUC [2] of 2.2 µM·min and an IC50 (Kasumi 1) of 0.044 µM. For the same compound, the CL free [3] was 48.2 L/h/kg.

For `COc1cc(-c2cn(Cc3ccc(N4CCC(NCC5CCC5)C4)nn3)nn2)c2cn[nH]c2c1` (configuration not stated), the logD at 24 h [1] was 1.95, the IC50 (Kasumi 1) was 15.3 µM and the IC50 (METTL3/METTL14) was 0.235 µM.

In the case of `COc1ccc(-c2cn(C(C)n3ccc(N4CCC[C@@H](NCC5CCC5)C4)cc3=O)nn2)cn1` (some centres not stated), the logD at 24 h [1] is reported as 1.69, the IC50 (Kasumi 1) is reported as over 30 µM and the IC50 (METTL3/METTL14) is reported as over 30 µM.

Work on `COc1cncc(-n2cnc(C(C)n3ccc(N4CCC[C@@H](NCC5CCC5)C4)cc3=O)c2)c1` (some centres not stated) yielded a logD at 24 h [1] of 1.25, an IC50 (Kasumi 1) of over 30 µM and an IC50 (METTL3/METTL14) of over 30 µM.

Work on `COc1cncc(-c2ncn(C(C)n3ccc(N4CCC[C@@H](NCC5CCC5)C4)cc3=O)n2)c1` (some centres not stated) yielded a logD at 24 h [1] of 1.37, an IC50 (Kasumi 1) of 1.61 µM and an IC50 (METTL3/METTL14) of 0.005 µM.

`COc1cncc(-c2nnc(C(C)n3ccc(N4CCC[C@@H](NCC5CCC5)C4)cc3=O)s2)c1` (some centres not stated) showed a logD at 24 h [1] of 1.45, an IC50 (Kasumi 1) of 0.506 µM and an IC50 (METTL3/METTL14) of 0.003 µM. For the same compound, the CL free [3] was 28.8 L/h/kg.

`COc1cccc(-c2cn(C(C)n3ccc(N4CCC[C@@H](NCC5CCC5)C4)cc3=O)nn2)c1` (some centres not stated) gave a logD at 24 h [1] of 2.22 and an IC50 (Kasumi 1) of over 30 µM.

`COc1cncc(-c2cn(Cc3ccc(C4CCCC(NCC5CCC5)C4)nn3)nn2)c1` (configuration not stated) showed a logD at 24 h [1] of 1.55, an IC50 (Kasumi 1) of over 30 µM and an IC50 (METTL3/METTL14) of 0.215 µM.

In the case of `COc1cc(-c2cn(Cc3ccc(N4CCC[C@@H](NC(=O)C5CCC5)C4)nn3)nn2)c2cn[nH]c2c1`, the logD at 24 h [1] is reported as 2.61 and the IC50 (Kasumi 1) is reported as over 30 µM.

`COc1cncc(-c2cn(Cc3ccc(N4CC5(CCC5NCC5CCC5)C4)nn3)nn2)c1` (configuration not stated) gave a logD at 24 h [1] of 1.54, an IC50 (Kasumi 1) of over 30 µM and an IC50 (METTL3/METTL14) of 2.3 µM.

For `COc1cnnc(-c2cn(C(C)n3ccc(N4CCC[C@@H](NCC5CCC5)C4)cc3=O)nn2)c1` (some centres not stated), the logD at 24 h [1] was 0.62, the IC50 (Kasumi 1) was 5.42 µM and the IC50 (METTL3/METTL14) was 0.005 µM.

`COc1cc(-c2cn(Cc3ccc(N4CCC[C@@H](N)C4)nn3)nn2)c2cn[nH]c2c1` gave a logD at 24 h [1] of 1.01, an IC50 (Kasumi 1) of over 30 µM and an IC50 (METTL3/METTL14) of 0.243 µM.
